In patent US20070212712A1, “Methods for identifying modulators of hedgehog autoprocessing” (priority 2005, published 2007):

System: Shh-N signaling
Test: Autoprocessing-independent Shh-N signaling assay (Gli-luciferase, control)
Assay type: cell-based, mouse
Details: 1 μM KAAD-cyclopamine
Method: This cell-based assay (FIGS. 1A and 1B) made use of Hh-responsive 3T3 mouse cells stably transfected with a Shh plasmid expressing full length Shh protein that undergoes autoprocessing to produce functionally active Shh protein. Cells incubated with pre-spliced N-Shh protein were used as a control. Shh signaling was assayed in control and treated cells using with dual luciferase reporter assay of luciferase activity expressed from an integrated copy of a Gli-luciferase reporter gene linked to of 8 tandem repeats of Gli transcription factor-binding sites, normalized to activity of a Renilla gene under the control of minimum TK promoter, to monitor toxicity and cell survival. Inhibition was confirmed by Western blot analysis of Hh autoprocessing (FIG. 2). Additional cell-based assays for testing the activities of candidate Hh autoprocessing inhibitors in blocking full-length Hh signaling include the measurement of Hh target gene expression (Patched, Gli , IGF2, N-myc; for example, via a luciferase-based assay) and chondrocyte differentiation of 10T½ cells. Persons skilled in the art will note that the above assays are also suitable for use in a cell-free assay system.

For CC1=C2C[C@H]3[C@@H](CC=C4CC(=O)CC[C@@]43C)[C@@H]2CC[C@]12O[C@@H]1C[C@H](C)CN(CCNC(=O)CCCCCNC(=O)CCc3ccccc3)[C@H]1[C@H]2C [KAAD-cyclopamine], the “Effect on Gli-luciferase activity in response to Shh-N” value was “inhibited Gli-luciferase activity”.
